These results are taken from patent US10787462B2, “Heterocyclic compound” (TAKEDA PHARMACEUTICAL COMPANY LIMITED, priority 2015, dated 2020).

For this experiment, the target named is T1, human RIPK1 (1-375) (Homo sapiens, UniProt Q13546).
T1 construct: human RIPK1 (1-375) gene; GST; made in house; host or cells: Sf-9 insect cells
T1 sequence (Q13546 1-375): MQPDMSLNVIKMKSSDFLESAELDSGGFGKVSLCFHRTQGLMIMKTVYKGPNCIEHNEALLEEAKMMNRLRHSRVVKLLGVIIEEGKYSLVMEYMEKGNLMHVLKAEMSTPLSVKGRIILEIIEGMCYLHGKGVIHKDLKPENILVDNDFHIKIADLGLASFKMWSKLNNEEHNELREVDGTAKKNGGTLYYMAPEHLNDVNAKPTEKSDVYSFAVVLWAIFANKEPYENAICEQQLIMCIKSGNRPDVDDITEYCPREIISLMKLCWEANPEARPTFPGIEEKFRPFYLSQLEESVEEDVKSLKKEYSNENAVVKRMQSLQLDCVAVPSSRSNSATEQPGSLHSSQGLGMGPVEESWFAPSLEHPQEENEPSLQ
Briefly: Human RIPK1 enzyme inhibitory effect (ADP-Glo Kinase Assay). Type of experiment: biochemical. As for the experimental part:
Experimental Example 1: Human RIPK1 Enzyme Inhibitory Effect
Enzyme was prepared by transducing human RIPK1 (1-375) gene to Sf-9 insect cells, and purifying using GST affinity column, and enzyme activity evaluation was performed using the enzyme. The enzyme was used after preservation at −70° C. The RIPK1 enzyme inhibitory activity of the test compound was measured using ADP-Glo™ Kinase Assay (Promega) according the following experiment methods. The test compound diluted with assay buffer (25 mM HEPES (pH 7.5), 10 mM MgCl2, 0.01% Tween-20, 2 mM DTT) was added to 384 well plate by each 2 μL. Next, RIPK1 enzyme solution diluted with the assay buffer was added thereto by each 2 μL, and the mixture was incubated at room temperature for 20 min. After the incubation, 0.6 mM ATP solution was added thereto by each 2 μL to initiate an enzyme reaction. The mixture was incubated at room temperature for 120 min, and ADP-Glo solution prepared according to Promega protocol was added to the 384 well plate by each 3 μL, and the reaction was performed at room temperature for 40 min. Then, Kinase-Detection solution was added to the 384 well plate by each 6 μL, and the reaction was performed at room temperature for 40 min. After the reaction, the luminescence intensity was measured by plate reader Envision (PerkinElmer).

[1] abbreviates: read-out: human RIPK1 enzyme inhibitory effect at 10 μM (% inhibition), 10 μM test compound, well without enzyme = 100% inhibition.

Molecules are shown by their SMILES. Structures can show the parent of a compound that is named as a salt. Where two headings read alike, the source gives them in different places.

For orientation: inhibition means the change of the read-out against control, counted positive when it falls. Regarding `CN1C(=O)[C@@H](N2CCc3cn(CC4COCCO4)nc3C2=O)COc2ccccc21` (stereo partly drawn) [Example 38, (3S)-3-(2-(1,4-dioxan-2-ylmethyl)-7-oxo-2,4,5,7-tetrahydro-6H-pyrazolo[3,4-c]pyridin-6-yl)-5-methyl-2,3-dihydro-1,5-benzoxazepin-4(5H)-one], under setting [1], the inhibition at 10 µM worked out at 96%. Regarding `CN1C(=O)[C@@H](N2CCc3cn(Cc4ccn(C)n4)nc3C2=O)COc2ccccc21` [Example 39, (3S)-5-methyl-3-(2-((1-methyl-1H-pyrazol-3-yl)methyl)-7-oxo-2,4,5,7-tetrahydro-6H-pyrazolo[3,4-c]pyridin-6-yl)-2-,3-dihydro-1,5-benzoxazepin-4(5H)-one], the inhibition at 10 µM under setting [1] worked out at 92%.

For the compound `CN1C(=O)[C@@H](N2CCc3cn(Cc4ccccc4)nc3C2=O)COc2ccc(Br)cc21` [Example 40, (3S)-3-(2-benzyl-7-oxo-2,4,5,7-tetrahydro-6H-pyrazolo[3,4-c]pyridin-6-yl)-7-bromo-5-methyl-2,3-dihydro-1,5-benzoxazepin-4(5H)-one], under setting [1], the inhibition at 10 µM amounted to 100%. As for `CN1C(=O)[C@@H](N2CCc3cn(Cc4ccccc4)nc3C2=O)COc2cc(Br)ccc21` [Example 41, (3S)-3-(2-benzyl-7-oxo-2,4,5,7-tetrahydro-6H-pyrazolo[3,4-c]pyridin-6-yl)-8-bromo-5-methyl-2,3-dihydro-1,5-benzoxazepin-4(5H)-one], under setting [1], the inhibition at 10 µM amounted to 101%. For `CN1C(=O)[C@@H](N2CCc3cn(Cc4cnccn4)nc3C2=O)COc2ccccc21` [Example 42, (3S)-5-methyl-3-(7-oxo-2-(pyrazin-2-ylmethyl)-2,4,5,7-tetrahydro-6H-pyrazolo[3,4-c]pyridin-6-yl)-2,3-dihydro-1,5-benzoxazepin-4(5H)-one], the inhibition at 10 µM under setting [1] is 99%. As for `CN1C(=O)[C@@H](N2CCc3cn(Cc4ccccc4F)nc3C2=O)COc2cc(C#N)ccc21` [Example 43, (3S)-3-(2-(2-fluorobenzyl)-7-oxo-2,4,5,7-tetrahydro-6H-pyrazolo[3,4-c]pyridin-6-yl)-5-methyl-4-oxo-2,3,4,5-tetrahydro-1,5-benzoxazepine-8-carbonitrile], under setting [1], the inhibition at 10 µM worked out at 97%. For the compound `CNC(=O)c1ccc2c(c1)OC[C@H](N1CCc3c(nn(Cc4ccccc4)c3Cl)C1=O)C(=O)N2C` [Example 44, (3S)-3-(2-benzyl-3-chloro-7-oxo-2,4,5,7-tetrahydro-6H-pyrazolo[3,4-c]pyridin-6-yl)-N,5-dimethyl-4-oxo-2,3,4,5-tetrahydro-1,5-benzoxazepine-8-carboxamide], under setting [1], the inhibition at 10 µM amounted to 100%.

For the compound `CN1C(=O)[C@@H](N2CCc3cn(Cc4c(F)cccc4F)nc3C2=O)COc2cc(C#N)ccc21` [Example 45, (3S)-3-(2-(2,6-difluorobenzyl)-7-oxo-2,4,5,7-tetrahydro-6H-pyrazolo[3,4-c]pyridin-6-yl)-5-methyl-4-oxo-2,3,4,5-tetrahydro-1,5-benzoxazepine-8-carbonitrile], under setting [1], the inhibition at 10 µM worked out at 101%. `CNC(=O)c1ccc2c(c1)OC[C@H](N1CCc3c(nn(Cc4c(F)cccc4F)c3Cl)C1=O)C(=O)N2C` [Example 46, (3S)-3-(3-chloro-2-(2,6-difluorobenzyl)-7-oxo-2,4,5,7-tetrahydro-6H-pyrazolo[3,4-c]pyridin-6-yl)-N,5-dimethyl-4-oxo-2,3,4,5-tetrahydro-1,5-benzoxazepine-8-carboxamide]: the inhibition at 10 µM under setting [1] is 100%.

Consider `CNC(=O)c1ccc2c(c1)OC[C@H](N1CCc3c(nn(Cc4ccccc4F)c3Cl)C1=O)C(=O)N2C` [Example 47, (3S)-3-(3-chloro-2-(2-fluorobenzyl)-7-oxo-2,4,5,7-tetrahydro-6H-pyrazolo[3,4-c]pyridin-6-yl)-N,5-dimethyl-4-oxo-2,3,4,5-tetrahydro-1,5-benzoxazepine-8-carboxamide], for which the inhibition at 10 µM under setting [1] was determined as 101%. The same measure, in the same setting: to `COc1c2c(nn1Cc1ccccc1)C(=O)N([C@H]1COc3ccccc3N(C)C1=O)CC2` [Example 48, (3S)-3-(2-benzyl-3-methoxy-7-oxo-2,4,5,7-tetrahydro-6H-pyrazolo[3,4-c]pyridin-6-yl)-5-methyl-2,3-dihydro-1,5-benzoxazepin-4(5H)-one] belongs 98%; to `CN1C(=O)[C@@H](N2CCc3c(nn(Cc4ccccc4)c3O)C2=O)COc2ccccc21` [Example 49, (3S)-3-(2-benzyl-3-hydroxy-7-oxo-2,4,5,7-tetrahydro-6H-pyrazolo[3,4-c]pyridin-6-yl)-5-methyl-2,3-dihydro-1,5-benzoxazepin-4(5H)-one], 87%. For `CN1C(=O)[C@@H](N2CCc3c(nn(Cc4ccccc4)c3C(N)=O)C2=O)COc2ccccc21` [Example 50, 2-benzyl-6-((3S)-5-methyl-4-oxo-2,3,4,5-tetrahydro-1,5-benzoxazepin-3-yl)-7-oxo-4,5,6,7-tetrahydro-2H-pyrazolo[3,4-c]pyridine-3-carboxamide], the inhibition at 10 µM (read-out: human RIPK1 enzyme inhibitory effect at 10 μM (% inhibition)) came out at 99%.

As for `CCOC(=O)c1c2c(nn1Cc1ccccc1)C(=O)N([C@H]1COc3ccccc3N(C)C1=O)CC2` [Example 51, ethyl 2-benzyl-6-((3S)-5-methyl-4-oxo-2,3,4,5-tetrahydro-1,5-benzoxazepin-3-yl)-7-oxo-4,5,6,7-tetrahydro-2H-pyrazolo[3,4-c]pyridine-3-carboxylate], the inhibition at 10 µM under setting [1] was determined as 99%. The same measure, in the same setting: in the case of `CN1C(=O)[C@@H](N2CCc3c(nn(Cc4ccccc4)c3CO)C2=O)COc2ccccc21` [Example 52, (3S)-3-(2-benzyl-3-(hydroxymethyl)-7-oxo-2,4,5,7-tetrahydro-6H-pyrazolo[3,4-c]pyridin-6-yl)-5-methyl-2,3-dihydro-1,5-benzoxazepin-4(5H)-one] it was 98%. `CN1C(=O)[C@@H](N2CCc3c(nn(Cc4ccccc4)c3C(=O)O)C2=O)COc2ccccc21` [Example 53, 2-benzyl-6-((3S)-5-methyl-4-oxo-2,3,4,5-tetrahydro-1,5-benzoxazepin-3-yl)-7-oxo-4,5,6,7-tetrahydro-2H-pyrazolo[3,4-c]pyridine-3-carboxylic acid]: the inhibition at 10 µM under setting [1] was 67%. As to `COc1ccc(Cn2c(Cc3ccccc3)nc3c2CCN([C@H]2COc4ccccc4N(C)C2=O)C3=O)cc1` [Example 54, (3S)-3-(2-benzyl-1-(4-methoxybenzyl)-4-oxo-1,4,6,7-tetrahydro-5H-imidazo[4,5-c]pyridin-5-yl)-5-methyl-2,3-dihydro-1,5-benzoxazepin-4(5H)-one], the inhibition at 10 µM under setting [1] amounted to 93%. On to `CN1C(=O)[C@@H](N2CCc3[nH]c(Cc4ccccc4)nc3C2=O)COc2ccccc21` [Example 55, (3S)-3-(2-benzyl-4-oxo-1,4,6,7-tetrahydro-5H-imidazo[4,5-c]pyridin-5-yl)-5-methyl-2,3-dihydro-1,5-benzoxazepin-4(5H)-one trifluoroacetate], for which the inhibition at 10 µM under setting [1] was found to be 96%. Turning to `CN1C(=O)[C@@H](N2CCc3c(nc(Cc4ccccc4)n3C)C2=O)COc2ccccc21` [Example 56, (3S)-3-(2-benzyl-1-methyl-4-oxo-1,4,6,7-tetrahydro-5H-imidazo[4,5-c]pyridin-5-yl)-5-methyl-2,3-dihydro-1,5-benzoxazepin-4(5H)-one], the inhibition at 10 µM under setting [1] was found to be 96%. Still for that read-out and setting: in the case of `CN1C(=O)[C@@H](N2CCc3c(nn(Cc4ccccc4)c3Cl)C2=O)COc2cc(Br)ccc21` [Example 58, (3S)-3-(2-benzyl-3-chloro-7-oxo-2,4,5,7-tetrahydro-6H-pyrazolo[3,4-c]pyridin-6-yl)-8-bromo-5-methyl-2,3-dihydro-1,5-benzoxazepin-4(5H)-one] it was 101%; in that of `CN1C(=O)[C@@H](N2CCc3c(nn(Cc4ccccc4)c3Cl)C2=O)COc2cc(C3COC3)ccc21` [Example 59, (3S)-3-(2-benzyl-3-chloro-7-oxo-2,4,5,7-tetrahydro-6H-pyrazolo[3,4-c]pyridin-6-yl)-5-methyl-8-(oxetan-3-yl)-2,3-dihydro-1,5-benzoxazepin-4(5H)-one], 97%; in that of `CN1C(=O)[C@@H](N2CCc3c(nn(Cc4ccccc4)c3Cl)C2=O)COc2cc(-c3nccn3C)ccc21` [Example 60, (3S)-3-(2-benzyl-3-chloro-7-oxo-2,4,5,7-tetrahydro-6H-pyrazolo[3,4-c]pyridin-6-yl)-5-methyl-8-(1-methyl-1H-imidazol-2-yl)-2,3-dihydro-1,5-benzoxazepin-4(5H)-one], 100%.

Consider `CN1C(=O)[C@@H](N2CCc3c(nn(Cc4ccccc4)c3Cl)C2=O)COc2cc(C(=O)O)ccc21` [Example 61, (3S)-3-(2-benzyl-3-chloro-7-oxo-2,4,5,7-tetrahydro-6H-pyrazolo[3,4-c]pyridin-6-yl)-5-methyl-4-oxo-2,3,4,5-tetrahydro-1,5-benzoxazepine-8-carboxylic acid], for which, under setting [1], the inhibition at 10 µM was found to be 100%.
